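The compound was tested at five concentrations on cells cultured in 96-well plates, with a 48-hour exposure period. GI50 = concentration required for 50% inhibition of growth.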 Active and inactive are the calls of the source. Rule as the data show it: active = GI50 up to about 1.1 µM and inactive = higher.
Assays:
Test in all cases: inhibition of tumour cell growth, NCI panel, 48 h
[1] = test system: 786-0
[2] = test system: A498
[3] = test system: CAKI-1
[4] = test system: EKVX
[5] = test system: HCT-15
[6] = test system: HOP-92
[7] = test system: K562
[8] = test system: MDA-MB-231
[9] = test system: Malme-3M
[10] = test system: NCI-H226
[11] = test system: NCI-H23
[12] = test system: OVCAR-8
[13] = test system: PC-3
[14] = test system: SF-268
[15] = test system: SF-295
[16] = test system: SK-MEL-28
[17] = test system: Hs-578T
[18] = test system: MOLT-4
[19] = test system: SK-OV-3

Row | Compound | GI50 [1] | GI50 [2] | GI50 [3] | GI50 [4] | GI50 [5] | GI50 [6] | GI50 [7] | GI50 [8] | GI50 [9] | GI50 [10] | GI50 [11] | GI50 [12] | GI50 [13] | GI50 [14] | GI50 [15] | GI50 [16] | GI50 [17] | GI50 [18] | GI50 [19]
1 | NC(=O)Nc1ccc(S(=O)(=O)Nc2ccc(S(N)(=O)=O)cc2)cc1 | > 100 µM (inactive) | > 100 µM (inactive) | > 100 µM (inactive) | > 100 µM (inactive) | > 100 µM | 37.2 µM (inactive) | > 100 µM (inactive) | > 100 µM (inactive) | > 100 µM (inactive) | > 100 µM (inactive) | > 100 µM (inactive) | > 100 µM (inactive) | > 100 µM (inactive) | 0.649 µM (active) | > 100 µM (inactive) | > 100 µM (inactive) | – | – | –
2 | COC(=O)CSC1CC(=O)c2c(Cl)sc(Cl)c21 (stereo unspecified) | > 100 µM (inactive) | – | > 100 µM (inactive) | > 100 µM (inactive) | > 100 µM | > 100 µM (inactive) | > 100 µM (inactive) | > 100 µM (inactive) | > 100 µM (inactive) | – | > 100 µM (inactive) | > 100 µM (inactive) | > 100 µM (inactive) | > 100 µM (inactive) | > 100 µM (inactive) | > 100 µM (inactive) | > 100 µM (inactive) | > 100 µM (inactive) | > 100 µM (inactive)
3 | CCOC(=O)Cc1csc2[n+]1C(=O)/C(=C\c1cccc(Cl)c1Cl)S2 | 15.8 µM (inactive) | – | 23.6 µM (inactive) | 17.2 µM (inactive) | 16.2 µM | 6.85 µM (inactive) | – | 25.9 µM (inactive) | – | 14.8 µM (inactive) | 13.3 µM (inactive) | 19.5 µM (inactive) | 13.3 µM (inactive) | 29.2 µM (inactive) | 15.3 µM (inactive) | 19.5 µM (inactive) | 29.5 µM (inactive) | 10.3 µM (inactive) | 17.3 µM (inactive)
4 | COc1ccc(-c2cc(-c3cc4cc(Br)ccc4nc3Cl)c(C#N)c(N)n2)cc1 | > 12.5 µM (inactive) | – | > 12.5 µM (inactive) | > 12.5 µM (inactive) | > 12.5 µM | > 12.5 µM (inactive) | > 12.5 µM (inactive) | – | > 12.5 µM (inactive) | > 12.5 µM (inactive) | > 12.5 µM (inactive) | > 12.5 µM (inactive) | > 12.5 µM (inactive) | > 12.5 µM (inactive) | > 12.5 µM (inactive) | > 12.5 µM (inactive) | > 12.5 µM (inactive) | 9.66 µM (inactive) | > 12.5 µM (inactive)
5 | Cc1ccc(C(=O)c2[nH]c(Nc3cc(C)ccn3)c(C(=S)Nc3ccccc3)c2N)cc1 | > 100 µM (inactive) | > 100 µM (inactive) | > 100 µM (inactive) | > 100 µM (inactive) | > 100 µM | > 100 µM (inactive) | > 100 µM (inactive) | > 100 µM (inactive) | > 100 µM (inactive) | > 100 µM (inactive) | > 100 µM (inactive) | > 100 µM (inactive) | – | > 100 µM (inactive) | > 100 µM (inactive) | > 100 µM (inactive) | > 100 µM (inactive) | > 100 µM (inactive) | > 100 µM (inactive)
6 | COc1cccc(-n2nnc3c(N)nc(N)nc32)c1 | > 100 µM (inactive) | > 100 µM (inactive) | > 100 µM (inactive) | 12.3 µM (inactive) | > 100 µM | > 100 µM (inactive) | > 100 µM (inactive) | > 100 µM (inactive) | > 100 µM (inactive) | > 100 µM (inactive) | 28.9 µM (inactive) | > 100 µM (inactive) | > 100 µM (inactive) | 5.96 µM (inactive) | > 100 µM (inactive) | > 100 µM (inactive) | – | > 100 µM (inactive) | > 100 µM (inactive)
7 | C/C=C1\CC2C(=O)CCC2C2c3ccccc3OC12 (stereo unspecified) | > 100 µM (inactive) | – | > 100 µM (inactive) | > 100 µM (inactive) | > 100 µM | > 100 µM (inactive) | > 100 µM (inactive) | > 100 µM (inactive) | > 100 µM (inactive) | > 100 µM (inactive) | > 100 µM (inactive) | > 100 µM (inactive) | > 100 µM (inactive) | > 100 µM (inactive) | > 100 µM (inactive) | > 100 µM (inactive) | > 100 µM (inactive) | > 100 µM (inactive) | > 100 µM (inactive)
8 | COc1ccc(CNc2nc3cc(C(F)(F)F)ccc3nc2-c2ccccc2)cc1OC | 33.4 µM (inactive) | – | 18 µM (inactive) | 18.7 µM (inactive) | 28.2 µM | – | 26.1 µM (inactive) | 53.8 µM (inactive) | 45.6 µM (inactive) | – | 20.8 µM (inactive) | 54.6 µM (inactive) | 28.2 µM (inactive) | 62.8 µM (inactive) | 29.4 µM (inactive) | – | 25.2 µM (inactive) | 25.5 µM (inactive) | > 100 µM (inactive)
9 | COc1ccc(N2C(=O)/C(=C/c3ccc(N(CCC#N)CCC#N)cc3)N=C2c2ccccc2)c(OC)c1 | > 100 µM (inactive) | – | > 100 µM (inactive) | > 100 µM (inactive) | 40.2 µM | 31.1 µM (inactive) | 18.1 µM (inactive) | > 100 µM (inactive) | > 100 µM (inactive) | 27.4 µM (inactive) | 60.3 µM (inactive) | 28.5 µM (inactive) | – | > 100 µM (inactive) | > 100 µM (inactive) | > 100 µM (inactive) | 50.6 µM (inactive) | 28.2 µM (inactive) | > 100 µM (inactive)
10 | CCOCc1c(C)cc(C)c(C2C(C(=O)c3ccccc3)N3c4ccccc4C=CC3C2(C#N)C(=O)OCC)c1C (stereo unspecified) | 45 µM (inactive) | > 100 µM (inactive) | 44 µM (inactive) | 16.1 µM (inactive) | 44.2 µM | – | > 100 µM (inactive) | – | – | – | 44.4 µM (inactive) | – | 25.8 µM (inactive) | 53.8 µM (inactive) | 53 µM (inactive) | 64.6 µM (inactive) | > 100 µM (inactive) | 86.5 µM (inactive) | –
11 | C/C(CC(=O)Nc1cccc([N+](=O)[O-])c1)=N\NC(=O)C[n+]1ccccc1 | > 100 µM (inactive) | – | – | > 100 µM (inactive) | – | > 100 µM (inactive) | – | – | > 100 µM (inactive) | > 100 µM (inactive) | > 100 µM (inactive) | > 100 µM (inactive) | – | > 100 µM (inactive) | > 100 µM (inactive) | > 100 µM (inactive) | – | > 100 µM (inactive) | > 100 µM (inactive)
12 | COc1c(C)c(C/C=C(\C)CC/C=C(\C)CC/C=C(\C)CCC=C(C)C)c(OC)c(OC)c1OC | > 100 µM (inactive) | – | > 100 µM (inactive) | > 100 µM (inactive) | > 100 µM | > 100 µM (inactive) | > 100 µM (inactive) | > 100 µM (inactive) | – | – | > 100 µM (inactive) | > 100 µM (inactive) | > 100 µM (inactive) | > 100 µM (inactive) | > 100 µM (inactive) | – | > 100 µM (inactive) | > 100 µM (inactive) | > 100 µM (inactive)
13 | O=c1[nH]nc(-c2ccccc2)n1/N=C/c1c(O)ccc2ccccc12 | 31.3 µM (inactive) | – | – | > 100 µM (inactive) | 42.6 µM | 34.2 µM (inactive) | 60 µM (inactive) | 83.6 µM (inactive) | – | – | 26.8 µM (inactive) | 48.6 µM (inactive) | 37.8 µM (inactive) | 32.7 µM (inactive) | 29 µM (inactive) | 75.7 µM (inactive) | 14.1 µM (inactive) | > 100 µM (inactive) | 28.2 µM (inactive)
14 | O=C1Nc2ccccc2/C1=C1/Nc2ccccc2/C1=N\OCCNCC(O)C(O)C(O)C(O)CO (stereo unspecified) | 18.1 µM (inactive) | – | 38.5 µM (inactive) | 30.3 µM (inactive) | > 50 µM | 10.1 µM (inactive) | 16.3 µM (inactive) | 11.2 µM (inactive) | 11.2 µM (inactive) | 13.8 µM (inactive) | 10.4 µM (inactive) | 18.5 µM (inactive) | 10.2 µM (inactive) | 11.9 µM (inactive) | 30.7 µM (inactive) | 9.73 µM (inactive) | 13.4 µM (inactive) | 12.9 µM (inactive) | 9.66 µM (inactive)
15 | CCOC(=O)C(/C(=N\NC(=O)OC)C(=O)Nc1cc(OC)ccc1OC)c1cnc2ccccc2n1 (stereo unspecified) | > 100 µM (inactive) | > 100 µM (inactive) | > 100 µM (inactive) | > 100 µM (inactive) | > 100 µM | > 100 µM (inactive) | > 100 µM (inactive) | – | > 100 µM (inactive) | > 100 µM (inactive) | > 100 µM (inactive) | > 100 µM (inactive) | – | > 100 µM (inactive) | > 100 µM (inactive) | > 100 µM (inactive) | – | – | > 100 µM (inactive)
16 | CN1CCCC(OC(=O)c2cc3cc(CCl)ccc3oc2=O)C1 (stereo unspecified) | 23.8 µM (inactive) | – | 23.7 µM (inactive) | 31.2 µM (inactive) | 19.2 µM | 15.7 µM (inactive) | 27.9 µM (inactive) | 21 µM (inactive) | 17.6 µM (inactive) | 23.9 µM (inactive) | 19.3 µM (inactive) | 28.8 µM (inactive) | 18.3 µM (inactive) | 21.7 µM (inactive) | 25.2 µM (inactive) | 19.5 µM (inactive) | 21.9 µM (inactive) | 29.6 µM (inactive) | 35.2 µM (inactive)
17 | CCCCCC1=C2C(c3ccc(OC)cc3)=C(N)C(c3ccc(OC)cc3)=C3NC(=O)C(C=C1)C32 (stereo unspecified) | 25 µM (inactive) | 43 µM (inactive) | 36 µM (inactive) | 92.3 µM (inactive) | > 100 µM | 17.9 µM (inactive) | 42.1 µM (inactive) | > 100 µM (inactive) | 19.5 µM (inactive) | 21.9 µM (inactive) | 48.4 µM (inactive) | 30.3 µM (inactive) | 27.7 µM (inactive) | 11.8 µM (inactive) | 36.3 µM (inactive) | > 100 µM (inactive) | – | 56.4 µM (inactive) | 41.7 µM (inactive)
